Source: the METLIN SMRT retention time set (Domingo-Almenara et al. 2019)

Assay: gradient 5% acetonitrile 3 min, to 50% in 2 min, to 85% in 15 min, held 3 min, 100 µL/min
Details: column: Zorbax Extend-C18 2.1 x 50 mm; eluents: water / acetonitrile, 0.1% formic acid
Summary of the method: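 Values are retention times taken from adduct peaks that software picked and an analyst inspected. The pure standards were run as mixtures of ~100 molecules on HPLC linked to a quadrupole time-of-flight mass spectrometer, in positive and negative ionization mode. A Zorbax Extend-C18 column (2.1 × 50 mm, 1.8 μm) was used at 100 μL/min with water and acetonitrile, each including 0.1% formic acid.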

Compound | RP-LC retention time [s]
Cc1nn(-c2nc(-c3ccc(Cl)cc3)cs2)c(C)c1CC(=O)N1CCCC1 | 1120
CN(C)c1cnc(-n2cc(NC(=O)c3ccc(C#N)cc3)cn2)nc1 | 716
CC(C)(C)C(=O)N1CCCC1COc1ccc(C(=O)N2CCCC2)cc1 (stereo not given) | 647
Cc1noc(C)c1CCC(=O)N1CCCCC1c1nncn1C (stereo not given) | 607
CC1CCN(c2cc(-n3cnc(C(=O)N4CCc5ccccc54)c3)ncn2)CC1 | 1140
CC(C)NC(=O)c1ccc(OCC2CCCN(C(=O)c3ccc(F)cc3Cl)C2)cc1 (stereo not given) | 887
COc1ccc(-c2cc3c4nnc(CCC(=O)NCc5ccccc5C(F)(F)F)n4ccn3n2)cc1 | 822
CCS(=O)(=O)N1CCC(C(=O)NCCc2csc(-c3ccccc3)n2)CC1 | 765
Cc1ccc(NC(=O)C2CCN(S(=O)(=O)c3ccc4c(c3)sc(=O)n4C(C)C)CC2)cc1 | 942
O=C(c1ccoc1)N1CCC(F)(C(=O)NCC2CC2)CC1 | 618
COc1ccc(N2C=C(C#N)S(=O)(=O)c3c(F)cccc32)cc1OC | 844
CCSc1nc2ccc(NS(=O)(=O)c3ccc(F)cc3)cc2s1 | 1010
CC(=O)Nc1cccc(-c2nc(-c3cccc(-c4ccn[nH]4)c3)no2)c1 | 763
Clc1ccc(Cc2nc(-c3cccc(-c4ccn[nH]4)c3)no2)cc1 | 1010
O=C(NCc1ccc(F)cc1F)C1CCN(c2cnc(N3CCCC3)nc2)CC1 | 668
COc1ccc(CNC(=O)C2CCN(C(=O)N3CCOc4ccc(Cl)cc43)CC2)cc1 | 846
O=C(CCC[C@@H]1[C@H]2CCCN3CCC[C@@H](CN1C(=O)c1ccccc1)[C@@H]23)NC1CCS(=O)(=O)C1 (stereo not given in full) | 574
CCOC(=O)N1CCN(C(=O)Cn2nc(-c3ccccc3)cc(N)c2=O)CC1 | 673

Compound | RP-LC retention time [s]
CC12C=CC(=O)C=C1CCC1C2=CCC2(C)C1CC[C@@H]2C(=O)CN1CCN(c2cc(N3CCCC3)nc(N3CCCC3)n2)CC1 (stereo not given in full) | 732
CN(C(=O)c1c2c(cn(-c3ccccc3)c1=O)C(=O)CC(C)(C)C2)c1ccc(F)cc1 | 835
CCOC(=O)c1[nH]c(C)c(CCC(=O)N2CCC(C(=O)NCCc3ccco3)CC2)c1C | 743
COC(=O)c1c(C)[nH]c(C(=O)N2CCC(CC(=O)NCc3cccc(F)c3)CC2)c1C | 735
Cc1ccc2cc(CCC(=O)N3CCN(C(=O)c4ccco4)CC3)c(=O)[nH]c2c1 | 655
COc1cccc(CCC(=O)N(C)C[C@@]23CCC[C@H]2N(C)C(=O)CC3)c1 | 571
CC(NC(=O)C1CCN(c2cnc3nccnc3c2)CC1)c1ccc(F)cc1 (stereo not given) | 702
CCCc1cc(C2CCCN2C(=O)Nc2ccc(OC)c(OC)c2)no1 (stereo not given) | 778
CCCn1cc(C(=O)NCCOC)c(S(=O)(=O)N2CCN(c3ccccc3OCC)CC2)n1 | 959
COC(=O)c1nnn(-c2cc(C)cc(C)c2)c1C(=O)OC | 949
CCOc1cccc(-c2noc(Cn3c(=O)n(-c4ccc(Cl)cc4)c(=O)c4sccc43)n2)c1 | 1130
Cc1ccccc1NC(=O)Cn1c(=O)n(-c2ccc(F)cc2)c2ncccc21 | 814
O=S(=O)(NCC(O)c1ccc(C(F)(F)F)cc1)c1ccc2c(c1)OCCO2 (stereo not given) | 817
Cc1ccc(NC(=O)Nc2nccn(-c3cccc(F)c3)c2=O)cc1C | 1020
O=C(CN1c2ccc(F)cc2-c2ccccc2S1(=O)=O)N1CCCCCC1 | 958
Cn1c(=O)sc2cc(S(=O)(=O)N3CCC(C(=O)Nc4cccc(Cl)c4)CC3)ccc21 | 953
CN(CC(=O)N1CCCCC1)S(=O)(=O)c1ccc2c(c1)CCCC(=O)N2 | 676
